Strand notation (5' to 3'): a small letter for the sugar, then the base; units joined by * are phosphorothioate-linked, units joined directly phosphodiester-linked; [ ] holds rarer units or linkages, { } end groups; capitals alone tell only the bases. k = constrained ethyl (cEt); [5mC] = 5-methylcytosine; d = 2'-deoxy (DNA)
Tested on: Yap1 mRNA
Test: Dose-dependent inhibition of human Yap1 in A-431 cells (Example 7, 10,000 cells per well, RTS36584)
Format: cell-based
Settings: free uptake
Method: Modified oligonucleotides described in the studies above were tested at various doses in A-431 cells. Cultured A-431 cells at a density of 10,000 cells per well were treated using free uptake with modified oligonucleotides diluted to concentrations described in the tables below. After approximately 48 hours, Yap1 mRNA levels were measured as previously described using the Human Yap1 primer-probe set RTS36584. Yap1 mRNA levels were normalized to total RNA content, as measured by RIBOGREEN®. Results are presented in the tables below as percent control of the amount of Yap1 mRNA relative to untreated control cells (% UTC). IC50s were calculated using a linear regression on a log/linear plot of the data in excel.

[1] = 15.6 nM, A-431 cells, 10,000 cells per well, approximately 48 hours
[2] = 62.5 nM, A-431 cells, 10,000 cells per well, approximately 48 hours
[3] = 4000.00 nM, A-431 cells, 10,000 cells per well, approximately 48 hours
[4] = A-431 cells, approximately 48 hours, linear regression on log/linear plot
[5] = Table 56, 15.6 nM, A-431 cells 10,000 cells per well, 48 hours
[6] = Table 56, 62.5 nM, A-431 cells 10,000 cells per well, 48 hours
[7] = Table 56, 4000.00 nM, A-431 cells 10,000 cells per well, 48 hours
[8] = Table 56, A-431 cells 10,000 cells per well
[9] = Table 59, 15.6 nM, A-431 cells 10,000 cells per well, 48 hours
[10] = Table 59, 62.5 nM, A-431 cells 10,000 cells per well, 48 hours
[11] = Table 59, 4000.00 nM, A-431 cells 10,000 cells per well, 48 hours
[12] = Table 59, A-431 cells 10,000 cells per well

958594 (k[5mC]*kT*k[5mC]*dT*dT*dA*dG*dG*dT*d[5mC]*dT*d[5mC]*d[5mC]*kT*kT*k[5mC]; antisense) [compound 958594]
Yap1 mRNA, % UTC [1]: 91 % UTC | Yap1 mRNA, % UTC [2]: 70 % UTC | Yap1 mRNA, % UTC [3]: 20 % UTC | IC50 [4]: 0.2 µM

958565 (kT*kT*kG*dA*dG*d[5mC]*dA*d[5mC]*dT*dG*dA*dA*dA*kG*kT*kA; antisense) [compound 958565]
Yap1 mRNA, % UTC [1]: 83 % UTC | Yap1 mRNA, % UTC [2]: 62 % UTC | Yap1 mRNA, % UTC [3]: 13 % UTC | IC50 [4]: 0.1 µM

958726 (k[5mC]*kT*kG*dT*d[5mC]*dA*dG*dT*dT*dA*dT*d[5mC]*d[5mC]*kT*kA*kT; antisense) [compound 958726]
Yap1 mRNA, % UTC [5]: 99 % UTC | Yap1 mRNA, % UTC [6]: 70 % UTC | Yap1 mRNA, % UTC [7]: 16 % UTC | IC50 [8]: 0.17 µM

958668 (kG*kT*kG*dA*dT*d[5mC]*dT*dG*dT*dG*dA*dG*dA*kG*kG*kT; antisense) [compound 958668]
Yap1 mRNA, % UTC [9]: 81 % UTC | Yap1 mRNA, % UTC [10]: 38 % UTC | Yap1 mRNA, % UTC [11]: 5 % UTC | IC50 [12]: 0.1 µM

958798 (kT*kG*k[5mC]*dA*dG*dT*dA*dT*dA*dA*dT*dA*dT*k[5mC]*k[5mC]*kT; antisense) [compound 958798]
Yap1 mRNA, % UTC [9]: 101 % UTC | Yap1 mRNA, % UTC [10]: 61 % UTC | Yap1 mRNA, % UTC [11]: 12 % UTC | IC50 [12]: 0.1 µM

958799 (kA*kT*kT*dA*d[5mC]*dT*d[5mC]*dA*dA*dT*d[5mC]*dA*dT*kG*kG*kT; antisense) [compound 958799]
Yap1 mRNA, % UTC (Table 61, 15.6 nM, A-431 cells 10,000 cells per well, 48 hours): 88 % UTC | Yap1 mRNA, % UTC (Table 61, 62.5 nM, A-431 cells 10,000 cells per well, 48 hours): 53 % UTC | Yap1 mRNA, % UTC (Table 61, 4000.00 nM, A-431 cells 10,000 cells per well, 48 hours): 10 % UTC | IC50 (Table 61, A-431 cells 10,000 cells per well): 0.1 µM

958373 (antisense kA*kG*kG*dT*dG*d[5mC]*dT*dA*dG*d[5mC]*dT*dG*dG*kT*kG*k[5mC]) [compound 958373]
Yap1 mRNA, % UTC [5]: 72 % UTC | Yap1 mRNA, % UTC [6]: 45 % UTC | Yap1 mRNA, % UTC [7]: 17 % UTC | IC50 [8]: 0.05 µM

958370 (antisense k[5mC]*kT*kT*dT*dA*dT*d[5mC]*dT*dA*dG*d[5mC]*dT*dT*kG*kG*kT) [compound 958370]
Yap1 mRNA, % UTC [5]: 98 % UTC | Yap1 mRNA, % UTC [6]: 74 % UTC | Yap1 mRNA, % UTC [7]: 22 % UTC | IC50 [8]: 0.2 µM

958597 (k[5mC]*k[5mC]*k[5mC]*dA*dA*dT*dA*d[5mC]*dA*dA*d[5mC]*d[5mC]*dA*kA*kG*kA; antisense) [compound 958597]
Yap1 mRNA, % UTC [9]: 104 % UTC | Yap1 mRNA, % UTC [10]: 46 % UTC | Yap1 mRNA, % UTC [11]: 20 % UTC | IC50 [12]: 0.2 µM

958767 (kA*k[5mC]*kG*dA*dA*dT*dA*dA*dG*dG*d[5mC]*dA*dT*kT*kA*kG; antisense) [compound 958767]
Yap1 mRNA, % UTC [9]: 101 % UTC | Yap1 mRNA, % UTC [10]: 57 % UTC | Yap1 mRNA, % UTC [11]: 10 % UTC | IC50 [12]: 0.1 µM

958356 (antisense kT*kT*kG*dA*dA*dG*dA*dA*dG*dG*dA*dG*dT*k[5mC]*kG*kG) [compound 958356]
Yap1 mRNA, % UTC [5]: 84 % UTC | Yap1 mRNA, % UTC [6]: 79 % UTC | Yap1 mRNA, % UTC [7]: 21 % UTC | IC50 [8]: 0.18 µM

958532 (kG*kA*kA*dG*dT*dA*dG*dG*dA*dG*d[5mC]*dA*dA*kG*kT*k[5mC]; antisense) [compound 958532]
Yap1 mRNA, % UTC (Table 58, 15.6 nM, A-431 cells 10,000 cells per well, 48 hours): 88 % UTC | Yap1 mRNA, % UTC (Table 58, 62.5 nM, A-431 cells 10,000 cells per well, 48 hours): 44 % UTC | Yap1 mRNA, % UTC (Table 58, 4000.00 nM, A-431 cells 10,000 cells per well, 48 hours): 7 % UTC | IC50 (Table 58, A-431 cells 10,000 cells per well): 0.1 µM

958731 (kG*k[5mC]*kT*d[5mC]*dT*dG*dT*d[5mC]*dA*dG*dT*dT*dA*kT*k[5mC]*k[5mC]; antisense) [compound 958731]
Yap1 mRNA, % UTC (Table 57, 15.6 nM, A-431 cells 10,000 cells per well, 48 hours): 85 % UTC | Yap1 mRNA, % UTC (Table 57, 62.5 nM, A-431 cells 10,000 cells per well, 48 hours): 64 % UTC | Yap1 mRNA, % UTC (Table 57, 4000.00 nM, A-431 cells 10,000 cells per well, 48 hours): 19 % UTC | IC50 (Table 57, A-431 cells 10,000 cells per well): 0.1 µM

958763 (k[5mC]*kA*k[5mC]*dA*dA*dT*dA*d[5mC]*dA*dA*dG*dA*dT*kG*k[5mC]*kA; antisense) [compound 958763]
Yap1 mRNA, % UTC [9]: 98 % UTC | Yap1 mRNA, % UTC [10]: 60 % UTC | Yap1 mRNA, % UTC [11]: 8 % UTC | IC50 [12]: 0.1 µM

958805 (k[5mC]*kA*kA*dG*dA*dT*dA*dA*dT*d[5mC]*dA*dT*d[5mC]*k[5mC]*kT*k[5mC]; antisense) [compound 958805]
Yap1 mRNA, % UTC [1]: 90 % UTC | Yap1 mRNA, % UTC [2]: 89 % UTC | Yap1 mRNA, % UTC [3]: 28 % UTC | IC50 [4]: 0.3 µM
